Measured values reported in patent US10975060B2, “High relaxivity gadolinium chelate compounds for use in magnetic resonance imaging” (BAYER PHARMA AKTIENGESELLSCHAFT, priority 2016, dated 2021).
Entries after “also recorded” stand apart in the source; their conditions may differ.

What was measured:
[1] = Gd-complex stabilities in human plasma at 37 °C, 15 d (released Gd3+ by HPLC-ICP-MS); assay type: in vitro ADME
Experimental: Gd-Complex Stabilities in Human Plasma at 37° C., 15 d
Example 1 was separately dissolved in human plasma at 1 mmol Gd/L. As a reference for released Gd^3+ 0.1 mmol/L Gadolinium chloride (GdCl3) was dissolved in human plasma. The plasma samples were incubated for 15 days at 37° C. under 5% CO2 atmosphere to maintain the pH at 7.4. Aliquots were taken at the start and end of the incubation. The amount of Gd^3+ released from the complexes was determined by HPLC-ICP-MS. Column: Chelating Sepharose (HiTrap, 1 mL). Solvent A: 10 mM BisTris-HCl pH 6.0. Solvent B: 15 mM HNO3. Gradient: 3 min at 100% A, from 3 to 10 min at 100% B. Flow 1 mL/min. Detection by ICP-MS, tuned to ^158Gd. The chromatograms, displaying the intensity of the detected Gd, were evaluated by peak area analysis. The size of the peak of Gd^3+, eluting after the change from solvent A to B, was recorded. For Example 1 the increase of this peak and thus the release of Gd^3 after 15 days was below the limit of quantification (<0.1% of the injected total amount of Gadolinium). Example 1 is stable under physiological conditions.

[2] = Chemical stability: autoclaving at 121 °C for 20 min in 10 mM Tris-HCl pH 7.4, HPLC-ICP-MS; assay type: physicochemical; details: 5 mmol Gd/L in 10 mM Tris-HCl pH 7.4, 121 °C
Experimental: The aliquot removed before and after autoclaving was analyzed by HPLC-ICP-MS to determine the integrity of the compound.
HPLC: Column: Hypercarb 2.5 mm×15 cm. Solvent A: 0.1% formic acid in water. Solvent B: acetonitrile. Gradient from 100% A to 5% A+95% B in 10 min. Flow 1 ml/min. Detection by ICP-MS, tuned to ^158Gd. The chromatograms, displaying the intensity of the detected Gd, were visually compared. No changes in the chromatograms before and after autoclaving were detected. The compound was stable during the autoclaving procedure.

[3] = Water solubility (exploratory, 10 mM Tris-HCl, 20 °C); assay type: physicochemical; details: water (10 mM Tris-HCl buffer), pH 7.4
Experimental: The exploratory water solubilities of the compounds were determined at room temperature (20° C.) in 0.5 mL buffer solution (10 mM Tris-HCl) in the microcentrifuge tubes (Eppendorf, 2.0 mL safe-lock caps). The solid compounds were added stepwise to the buffer solution. The suspension was mixed using a shaker (Heidolph Reax 2000) and treated 5 min in an ultrasound bath (Bandelin, Sonorex Super RK255H).

[4] = Dynamic CT diffusion phantom study (dialysis cassette in fetal bovine serum); assay type: physicochemical; details: dialysis cassette 20,000 MWCO, 20 mmol Gd/L, CT signal over 30 h
Procedure, shortened: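 Contrast agent at 20 mmol Gd/L in a 20 kDa MWCO dialysis cassette was placed in fetal bovine serum. Diffusion was followed by clinical CT at 100 kV and 104 mA at time points from 0 min to 30 h. Regions of interest were drawn on one central 2.4 mm slice per time point.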

[5] = Relaxivity measurements at 3.0 T (whole body MRI scanner, 37 °C) in water and human plasma; assay type: physicochemical; details: normalized to Gd, average ± standard deviation
Procedure, shortened: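 T1 relaxivity measured on a 3.0 T whole-body MRI scanner at 37 °C in water and fresh citrated human plasma; inversion-recovery sequence, TE 7.46 ms, TIs 50–4500 ms. Three concentrations per compound between 0.05 and 2 mM; ri derived from slope of Ri versus Gd-normalised concentration.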

[6] = Relaxivity measurements at 1.4 T (MiniSpec mq60, 60 MHz, 37 °C) in water and human plasma; assay type: physicochemical; details: 1.41 T, normalized to Gd
Procedure, shortened: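 T1 by inversion recovery and T2 by CPMG, relaxation delay ≥5×T1, at three Gd concentrations between 0.05 and 2 mM in water or fresh citrated human plasma. Relaxivities r1, r2 taken as slopes of relaxation rate versus Gd concentration, verified by ICP-MS.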

[7] = Contrast-enhanced magnetic resonance angiography (CE-MRA) at 1.5 T, intraindividual comparison; assay type: in vivo, New Zealand white rabbits; details: rabbits
Experimental: Reference compound 1 (Gadovist®), as an approved representative of the Gadolinium-based MRI contrast agents, was used in both dose protocols (100 μmol Gd/kg bw and 25 μmol Gd/kg bw) and compared to example compound 6 (25 μmol Gd/kg bw).
The contrast-enhanced magnetic resonance angiography study was performed at a clinical 1.5 T Scanner (Magnetom Avanto Fit, Siemens Healthcare, Erlangen, Germany). For optimal signal exploitation, a spine in combination with a body-flex coil was used for the data acquisition. The study was performed on male New Zealand white rabbits (weight 3.6-3.9 kg, n=4, Charles River Kisslegg). The animals received all 3 contrast protocols within one imaging session. The order of the contrast protocols was randomized between the animals.
All animals are initially anesthetized using a body weight-adjusted intramuscular injection of a mixture (1+2) of xylazine hydrochloride (20 mg/mL, Rompun 2%, Bayer Vital GmbH, Leverkusen, Germany) and ketamine hydrochloride (100 mg/mL, Ketavet, Pfizer, Pharmacia GmbH, Berlin, Germany) using 1 mL/kg body weight. The continuous anesthesia of the intubated animals (endotracheal tube, Rueschelit Super Safe Clear, cuff 3.0 mm, Willy Ruesch A G, Kernen, Germany) is achieved by the intravenous injection of 0.9 mg propofol per kilogram per hour (10 mg/mL, Propofol-Lipuro 1%, B. Braun Melsungen A G, Melsungen, Germany). The continuous intravenous injection is performed using a MR infusion system (Continuum MR Infusion System, Medrad Europe B. V., A E Beek, Germany). The tracheal respiration (SV 900C, Maquet, Rastatt, Germany) is performed with 55% oxygen, forty breaths per minute, and a breathing volume of 4 mL per kilogram body weight per minute.
Based on a localizer MRI sequence oriented in coronal, axial, and sagittal directions the anatomic course of the aorta is acquired. A small intravenous test bolus (0.2 mL, Reference compound 1 followed by 1.3 mL saline) was administered to determine the time to peak interval (descending aorta) using a test bolus sequence. The MRA delay time between the start of the contrast injection and the start of image acquisition was calculated by subtracting the time to k-space center from the time to peak interval. For MRA a 3D FLASH sequence (TR=3.3 ms, TE=1.2 ms, flip=25°) was acquired before and after injection of the contrast agent considering the delay time. Both measurements were performed within expiratory breath hold. The time interval for the intraindividual comparison between the different contrast agent applications was twenty to thirty minutes.
Quantitative image evaluation was performed on the subtraction images (post contrast—baseline). […]

[8] = Pharmacokinetic parameters of blood plasma levels after i.v. bolus in male rats (three compartment model); assay type: in vivo, rats (Han-Wistar)
Experimental: Pharmacokinetic parameters of Example 6 were determined in male rats (Han-Wistar, 235-270 g, n=3). The compound was administered as a sterile aqueous solution (53.8 mmol Gd/L) as a bolus in the tail vein of the animals. The dose was 0.1 mmol Gd/kg. Blood was sampled 1, 3, 5, 10, 15, 30, 60, 90, 120, 240, 360, 480, and 1440 min post injection and the Gd concentration was determined by Inductively Coupled Plasma Mass Spectrometry (ICP-MS Agilent 7500a, Waldbronn, Germany). The blood level was converted to plasma concentrations by division by 0.625 (plasma fraction of rat blood, assuming strictly extracellular distribution). As a control, 3 animals (Han-Wistar, 248-289 g), were treated in the same way with Reference Compound 1 (Gadovist®), a low molecular weight contrast agent.
The fit of the obtained data to a three compartment model (Phoenix-WinNonlin) yielded the pharmacokinetic parameters which are shown in Table 3.

[9] = subtraction images, carotid artery, aorta, renal arteries
[10] = i.v. bolus 0.1 mmol Gd/kg, mean, n=3

## CN(CC(=O)NCC(CNC(=O)CN(C)C(=O)CN1CCN(CC(=O)[O-])CCN(CC(=O)[O-])CCN(CC(=O)[O-])CC1)(CNC(=O)CN(C)C(=O)CN1CCN(CC(=O)[O-])CCN(CC(=O)[O-])CCN(CC(=O)[O-])CC1)CNC(=O)CN(C)C(=O)CN1CCN(CC(=O)[O-])CCN(CC(=O)[O-])CCN(CC(=O)[O-])CC1)C(=O)CN1CCN(CC(=O)[O-])CCN(CC(=O)[O-])CCN(CC(=O)[O-])CC1.[Gd+3].[Gd+3].[Gd+3].[Gd+3] [Example 1, Tetragadolinium [4,10-bis(carboxylatomethyl)-7-{3,13-dimethyl-8,8-bis({[(methyl{[4,7,10-tris(carboxylatomethyl)-1,4,7,10-tetraazacyclododecan-1-yl]acetyl}amino)-acetyl]amino}methyl)-2,5,11,14-tetraoxo-15-[4,7,10-tris(carboxylatomethyl)-1,4,7,10-tetraazacyclododecan-1-yl]-3,6,10,13-tetraazapentadec-1-yl}-1,4,7,10-tetraazacyclo-dodecan-1-yl]acetate]
[1]; 1 mmol Gd/L, pH 7.4, below the limit of quantification
  release of Gd3+ after 15 days: < 0.1 % of the injected total amount of Gadolinium
[1]; 15 days
  stability under physiological conditions: stable
[2]
  appearance of the solution after autoclaving: clear and colorless
  changes in the chromatograms (HPLC-ICP-MS) before and after autoclaving: No changes
  stability during the autoclaving procedure: stable
[3]
  Solubility: >1000 mg/100 mL
[4]
  Diffusion half-live (20 kDa): 10.4 h
[5]; human plasma
  r1 human plasma: 10.3 ± 0.2 L/mmol/s
[5]; water
  r1 water: 9.1 ± 0.1 L/mmol/s
[6]
  r1 human plasma: 11.7 L/mmol/s
  r1 water: 10.1 L/mmol/s

## CC(C)CN(CC(=O)NCC(CNC(=O)CN(CC(C)C)C(=O)CN1CCN(CC(=O)[O-])CCN(CC(=O)[O-])CCN(CC(=O)[O-])CC1)(CNC(=O)CN(CC(C)C)C(=O)CN1CCN(CC(=O)[O-])CCN(CC(=O)[O-])CCN(CC(=O)[O-])CC1)CNC(=O)CN(CC(C)C)C(=O)CN1CCN(CC(=O)[O-])CCN(CC(=O)[O-])CCN(CC(=O)[O-])CC1)C(=O)CN1CCN(CC(=O)[O-])CCN(CC(=O)[O-])CCN(CC(=O)[O-])CC1.[Gd+3].[Gd+3].[Gd+3].[Gd+3] [Example 6, Tetragadolinium {4,10-bis(carboxylatomethyl)-7-[3-isobutyl-8,8-bis({[(isobutyl{[4,7,10-tris(carboxylatomethyl)-1,4,7,10-tetraazacyclododecan-1-yl]acetyl}amino)acetyl]-amino}methyl)-15-methyl-2,5,11-trioxo-13-{[4,7,10-tris(carboxylatomethyl)-1,4,7,10-tetraazacyclododecan-1-yl]acetyl}-3,6,10,13-tetraazahexadec-1-yl]-1,4,7,10-tetraaza-cyclododecan-1-yl}acetate]
[3]
  Solubility: >1000 mg/100 mL
[4]
  Diffusion half-live (20 kDa): 15.0 h
[7]; example compound 6 at 25 μmol Gd/kg bw
  vascular contrast (MR-angiograms, qualitative) at 25 μmol/kg compared to reference compound 1 at 100 μmol/kg: No qualitative difference
[7]; [9]
  signal enhancement at vascular regions, 25 μmol/kg compared to reference compound 1 at reduced (identical) dose (25 μmol/kg): significantly (p<0.001) higher
  signal enhancement at vascular regions, 25 μmol/kg compared to reference compound 1 at standard dose (100 μmol/kg): No significant difference; also recorded: similar
[8]; 0.1 mmol Gd/kg i.v.
  pharmacokinetic compared to that of the reference compound 1: very similar
[8]; [10]
  AUC∞ Area under the curve (to infinity): 10801 µmol·min/L
  MRT Mean residence time: 40.7 min
  V1 + V2 Volume, compartments V1 + V2: 0.14 L/kg
  V2 Volume, compartment V2: 0.12 L/kg
  Vd, ss Volume of distribution at steady state: 0.27 L/kg
  t½ α Half-life, compartment V1: 2.45 min
  t½ β Half-life, compartment V2: 22.4 min
  t½ γ Half-life, compartment V3: 1041 min
[6]
  r1 human plasma: 14.1 L/mmol/s
  r1 water: 11.6 L/mmol/s
